In assay [1] the test system is U87 (p53 wild-type glioblastoma multiforme) cells. Kind of assay: MTT cytotoxicity assay, U87 cells. As to conditions: for IC50: MTT, 48 h treatment. It counts as cell-based, human. Here is the method:
(§1) The in vitro cytotoxic effects of H2AcMe, H2BzMe and complexes 1 and 2 against wild type p53 U87 and mutant p53 T98 glioblastoma cells and against MRC-5 fibroblasts cells were tested using cisplatin as a positive control. To determine the IC50 (concentration that inhibits 50% of cell survival) values the cytotoxic effects were quantified using the 3-(4,5-dimethyl-2-thioazolyl)-2,5-diphenyl tetrazolium bromide (MTT) colorimetric assay. All tested compounds were cytotoxic against both glioma cell lines in a dose-dependent way. The IC50 values (see Table 1) were found in the micromolar range. Despite their cytotoxic activity, all compounds were less toxic to fibroblasts cells than cisplatin. CuCl2 evoked only mild cytotoxicity in all cell lineages with IC50 higher than 100 µM.
(§2) U87 (p53 wild-type glioblastoma multiforme) and T98 (p53 mutant glioblastoma multiforme) malignant human tumor cells and MRC5 (Human Fetal Lung Fibroblast) cells were obtained from the American Type Culture Collection (ATCC, Manassas, VA, USA). Cell lines were grown as monolayer in Dulbecco’s Modified Eagle’s Medium (DMEM, Gibco, Rockville, MD, USA), supplemented with 10% fetal bovine serum (Cultilab, Campinas, São Paulo, Brazil) and antibiotics (50 U/mL penicillin/50 […] streptomycin), in a humidified atmosphere air/CO2 (95%/5%) at 37 °C. Cells 80% confluents were used in all experiments. For all experiments, cells were seeded in 96-well plates, at a density of 1000 cells/well. After 24 h incubation cells were treated.
(§3) To determine the IC50 values the cytotoxic effects were quantified using the 3-(4,5-dimethyl-2-thioazolyl)-2,5-diphenyltetrazolium bromide (MTT) colorimetric assay. Briefly, cells were treated with increasing concentrations (10^−12, 10^−11, 10^−10, 10^−9, 10^−8, 10^−7, 10^−6, 10^−5, 10^−4 mol·L^−1) of either cisplatin (positive control) or test compounds (H2AcMe, H2BzMe, 1 and 2). The compounds were previously dissolved in dimethyl sulfoxide (DMSO) and the final concentrations were adjusted in DMEM in such manner that the final DMSO concentration was lower than 0.5%. Following 48 h treatment, MTT reagent was added to each well. Following another 4 h of incubation at 37 °C, DMSO was added to each well to dissolve formazan precipitate and absorbance was measured at 570 nm. Tests using DMSO (0.5% in DMEM) as negative control were carried out in parallel. All tests were performed in quadruplicates with full agreement between the results. Statistical analysis was carried out by the unpaired, one-tailed Student’s t testing using a p value of 0.05. A value of p < 0.05 was considered significant.
In general terms: Formazan colour is commonly taken as a measure of viable cells.

The subject of assay [2] is T98 (p53 mutant glioblastoma multiforme) cells. Kind of assay: MTT cytotoxicity assay, T98 cells. It counts as cell-based, human. Conditions: for IC50: MTT, 48 h treatment; for selectivity index (SI = IC50MRC5/IC50tumor cell), T98: T98 vs MRC5. The protocol: as §1, §2, §3
The subject of assay [3] is MRC5 (Human Fetal Lung Fibroblast) cells. Kind of assay: MTT cytotoxicity assay, MRC5 fibroblasts. It counts as cell-based. The protocol: as §1, §2, §3
Another assay deals with pUC 19 plasmid DNA. Kind of assay: Agarose gel electrophoresis of supercoiled plasmid DNA. Also noted: species or system Escherichia coli. As to conditions: 100 µM, Tris-HCl pH 7.20, 37 °C, 24 h. The protocol:
Studies of interactions between the compounds under study and supercoiled plasmid DNA by agarose gel electrophoresis were carried out. Thus, 136 ng of purified plasmid DNA-pUC 19 from Escherichia coli (Sigma-Aldrich Brasil, São Paulo, Brazil) were incubated with compounds 1, 2 and cisplatin at 100 µM in Tris-HCl buffer (NaCl 50 mM, Tris-HCl 5 mM, pH = 7.20). The mixture was incubated at 37 °C for 24 h. Thereafter, the reactions were quenched by adding 5 µL of the loading buffer solution (50 mM Tris, pH 7.20, 0.01% bromophenol blue, 50% glycerol, and 250 mM EDTA). The samples were analyzed by 1% agarose gel electrophoresis in 0.5 × TBE buffer for 1 h 40 min at […]. The gel was stained after electrophoresis in 0.5× TBE buffer with 2.5 µg·mL^−1 ethidium bromide for 15 min and visualized by UV light.

A further assay concerns U87 cells. The assay can be described thus: ROS generation, DCFH-DA assay, U87 cells. In kind it is cell-based, human. Conditions: 1 × 10^−5 mol/L, 24 h. An excerpt: (§4) To examine the effects of H2AcMe, H2BzMe and their complexes 1 and 2 on the generation of free radicals (reactive oxygen species, ROS), we used the 2',7'-dichlorodihydrofluorescein diacetate (DCFH-DA) assay.
(§5) ROS accumulation was detected using dichlorodihydrofluorescein diacetate (DCFH-DA, Sigma). DCFH-DA is a non-fluorescent compound, that when it is taken up by passive diffusion into the cells, is hydrolyzed by esterases to yield non-permeable DCFH. In the presence of ROS, DCFH is oxidized to the fluorescent DCF. Tumor cells were treated with the compounds for 24 h and were then incubated with DCFH-DA (1 × 10^−5 mol·L^−1) for 30 min at 37 °C. Following incubation, the cells were washed twice with PBS. Thereafter, the cells were observed under the fluorescent microscope Zeiss Axionplan coupled with a digital camera at excitation and emission wavelengths of 488 and 525 nm, respectively. Data were analyzed using ImageJ (ImageJ, National Institute of Health, Bethesda, MD, USA) and expressed as percentages of DCFDA fluorescence of the corresponding control.

The next assay relates to MRC5 cells. The assay can be described thus: ROS generation, DCFH-DA assay, MRC5 cells. In kind it is cell-based, human. Conditions: 1 × 10^−5 mol/L, 24 h.
From the text: as §4, §5

Where [4] appears, read: Homo sapiens, MRC5, 48 h treatment.

Structures are written as SMILES. Where only a bound is given, the exact number is not on record here.

By IC50 is commonly meant the concentration that gives 50% inhibition. Lower therefore signals higher potency.

`N.N.[Cl][Pt][Cl]` [Cisplatin, [cis(Diaminedichloro)platinum(II)], reference compound]: the IC50 was found to be 1.76 ± 0.22 µM in assay [1], 5.31 ± 1.94 µM in assay [2] and 5.05 ± 0.71 µM in assay [3] (48 h treatment). Further, the “selectivity index (SI = IC50MRC5/IC50tumor cell), U87” value in assay [1] (U87 vs MRC5) is 2.87. In assay [2], the “selectivity index (SI = IC50MRC5/IC50tumor cell), T98” value worked out at 0.95. Moreover, the “alteration in the electrophoretic mobility of pUC 19 plasmid DNA” value with pUC 19 plasmid DNA is given as “strong modification”.

In the case of `CC(=O)NN=C(C)c1ccccn1` [H2AcMe, 2-Acetylpyridine acetylhydrazone], the IC50 in assay [1] (Homo sapiens, U-87 MG) was 67.6 ± 4.08 µM; in assay [2] (Homo sapiens, T98, 48 h) it was 13.8 ± 4.89 µM; in assay [3] (setting [4]), 19.8 ± 4.15 µM. For the same molecule, the “ROS levels in U87 cells compared with T98 cells” value in the assay with U87 cells is reported as “higher levels of ROS in U87 cells”. Moreover, the “ROS levels in MRC5 cells compared with glioma cells” value in the assay on MRC5 cells is “lower levels of ROS in MRC5 cells”.

Regarding `CC(=O)NN=C(c1ccccc1)c1ccccn1` [H2BzMe, 2-benzoylpyridine acetylhydrazone], the IC50 in assay [1] (Homo sapiens, U-87 MG) was 52.3 ± 10 µM; in assay [2] (Homo sapiens, T98, 48 h), 19.8 µM; in assay [2], 19.7 ± 1.06 µM; in assay [3] (setting [4]) it was 62.3 ± 7.76 µM. The “selectivity index (SI = IC50MRC5/IC50tumor cell), T98” value in assay [2] is given as “good selectivity index”. The “ROS levels in U87 cells compared with T98 cells” value with U87 cells is listed as “equally effective in both cell lineages”. Besides, in the assay on MRC5 cells, the “ROS levels in MRC5 cells compared with glioma cells” value is “the same increasing in ROS levels in MRC5 and in both malignant cells”.

On to `[Cl][Cu][Cl]` [CuCl2, reference compound], for which the IC50 in assay [1], in assay [2] and in assay [3] (48 h treatment) was greater than 100 µM each time. In the assay on pUC 19 plasmid DNA, the “alteration in the electrophoretic mobility of pUC 19 plasmid DNA” value is “no alteration in the electrophoretic mobility”.

Values taken from publication PMC6270821, “ROS-Mediated Cytotoxic Effect of Copper(II) Hydrazone Complexes against Human Glioma Cells” (Molecules, 2014).
